Experimental data as given in patent US10080779B2, “Method for increasing the expression of anti-microbial peptides by keratinocytes comprising administering a composition comprising IL-17, TNF-alpha and OSM” (Universite D'Angers, priority 2004, dated 2018).

Assays:
[1] = tested on: RHE; test: RHE histology and immunohistochemistry (Example 14); format: cell-based, human; conditions: 72 h; for CK10, LOR and FLG expression (immunohistology) / IVL expression (immunohistology) / S100A7 expression (immunohistology): RHE; for CK10, LOR and FLG expression (immunohistology) / IVL expression (immunohistology) / S100A7 expression (immunohistology) / RHE histology: single cytokines
Description: (§1) Normal human epidermal keratinocytes (NHEK) were obtained as previously described, from surgical samples of healthy breast skin (Boniface et al, 2005). NHEK were cultured to 80% of confluence allowing the expression of a large panel of keratinocyte differentiation markers, and then starved for 24 h in Keratinocyte SFM containing 0.03 mM Ca^2+ (Invitrogen Life Technologies, Cergy Pontoise, France) before stimulation. Confluent differentiated cells were stimulated with or without recombinant IL-17A, OSM, TNFα, IL-22 and IL-1α alone at maximum effective concentrations (reported previously around 10 ng/ml (Boniface et al, 2005 and Boniface et al, 2007)) or in combination (R&D systems Europe, Lille, France) during 2 h to 72 h for mRNA quantification. RHE were generated on polycarbonate culture inserts, from surgical samples of paediatric foreskins as previously described (Guenou et al., 2009). RHE were stimulated with or without recombinant IL-17A, OSM, TNFα, IL-22 and IL-1α alone or in combination, with or without a Janus protein Tyrosine Kinases (JAKs) inhibitor 10 μM (Calbiochem, 420099), during 24 h for mRNA quantification or during 72 h for immunohistological analysis.
RHE were washed and fixed with formaldehyde solution. Fixed tissues were dehydrated with increasing ethanol concentrations, embedded in paraffin and sections were carried out using a microtome (4 μm thickness). The sections were deparaffinised, washed and incubated with hydrogen peroxide. The sections were incubated with anti-CK10 (SantaCruz, SC-23877), anti-LOR (Eurogentec, PRB-145P), anti-FLG (SantaCruz, SC-66192), anti-IVL (Biomedical Technologies, BT-601), anti-S100A7 (Clinisciences, IMG-409A) and then detected using a biotin-conjugated secondary antibody (Vector, RTU vectastain universal quick kit, PK-7800). After peroxidase-conjugated streptavidine (Vector, RTU vectastain universal quick kit, PK-7800) and peroxidase substrate addition (Dako, Substrat hyper-sensible AEC+), nuclei were counter-stained using a solution of hematoxylin. Sections were observed using a NIKON E400 microscope. The images were captured using a NIKON DS-Ril and processed with NIS-Elements 3.10 software.

[2] = tested on: NHEK; test: Cytokine measurement by ELISA in NHEK culture supernatants; format: cell-based, human; conditions: 96 h; for Redundancy with the family member it replaces in M5 (BD2 and CXCL8 production): IL-1β for IL-1α, TNFβ for TNFα, IL-17F for IL-17A, IL-24 for IL-22, IL-6 for OSM
Description: (§2) NHEK were obtained as previously described, from surgical samples of healthy breast skin (Boniface et al, 2005). NHEK were cultured to 80% of confluence and then starved for 24 h in Keratinocyte SFM without addition of growth factors before stimulation. Cells were stimulated with or without 10 ng/ml of recombinant IL-17A, OSM, TNFα, IL-22 and IL-1α alone or in combination (R&D systems Europe, Lille, France) during 24 h for mRNA quantification or 48 h to 96 h for protein quantification.
Levels of BD2, BD3 and CXCL8 were determined using Human ELISA development kit (Peprotech), and CXCL1 and CXCL5 with DuoSet reagents (R&D Systems Europe).

[3] = tested on: NHEK; test: cDNA macroarrays analysis of 36 cytokines on 154 genes in NHEK; format: cell-based, human; conditions: 10 ng/ml, 24 h
Description: The comparison of the effects of 36 different cytokines on the expression of 154 genes of potential interest for skin physiology was performed using home-made cDNA macroarrays analysis. After cytokine stimulation, total RNA was extracted using TRIzoI® Reagent (Invitrogen life Technologies) and conventional 33P-cDNA target synthesis and hybridization were performed (Boniface et al, 2007). Genes were considered regulated if expression levels differed more than 3-fold relative to untreated control and 3-fold relative to mean background noise.

[4] = tested on: NHEK; test: Keratinocyte differentiation marker (KDM) mRNA in NHEK (RT-PCR); format: cell-based, human; conditions: 24 h; for mRNA expression of CK1, DSG1, DSC1, FLG, CLSP, LOR and FABPS: single cytokines 10 ng/ml
Description: as §1
(§3) NHEK, RHE and murine skin total RNA were isolated using NucleoSpin® RNA II kit (Macherey-Nagel, Hoerdt, France) and reverse-transcribed with SuperScript® II Reverse Transcriptase (Invitrogen Life Technologies) according to the manufacturer's instructions. Quantitative real time PCR was carried out using the LightCycler-FastStart DNA Master SYBR® Green I kit on LightCycler 480 (Roche Diagnostics, Meylan, France). The reaction components were 1×DNA Master Mix, and 0.5 μM of HPLC purified sense and anti-sense oligonucleotides purchased from Eurogentec (Eurogentec France, Angers, France), designed using Primer3 software. The stability of the housekeeping gene expression has been assessed by using GeNorm algorithm. […] Thus samples were normalized to G3PDH housekeeping gene and reported according to the ΔΔCT method as RNA fold increase: 2^ΔΔCT=2^ΔCT sample−ΔCT reference.

[5] = tested on: normal human keratinocytes (NHEK); test: Cytokine cocktails on S100A7, hBD2/4, KRT10 mRNA in NHEK (RT-Q-PCR); format: cell-based; conditions: NHEK 24 hrs, 1 ng/ml each
Description: Quantitative real time PCR was carried out using the LightCycler-FastStart DNA Master^PLUS SYBR Green I kit (Roche, Mannheim, Germany). The reaction components were 1× FastStart DNA Master^PLUS SYBR Green I and 0.5 μM of forward and reverse primers for S100A7 (forward 5′-[…]-3′ (SEQ ID No: 9) and reverse 5′-[…]-3′ (SEQ ID No: 10)), S100A8 (Pattyn, Speleman et al. 2003), S100A9 (forward 5′-[…]-3′ (SEQ ID No: 11) and reverse 5′-[…]-3′ (SEQ ID No: 12)), hBD2/4 (forward 5′-[…]-3′ (SEQ ID No: 13) and reverse 5′-[…]-3′ (SEQ ID No: 14)), KRT10 (forward 5′-[…]-3′ (SEQ ID No: 15) and reverse 5′-[…]-3′ (SEQ ID No: 16)), and hydroxymethyl-bilane synthase (HMBS) as a housekeeping gene (Vandesompele, De Preter et al. 2002). After cDNA fluorescent quantification using propidium iodide, 250 ng, 25 ng and 2.5 ng of cDNA were added as PCR template in the LightCycler glass capillaries. The cycling conditions comprised a 10 min polymerase activation at 95° C. and 50 cycles at 95° C. for 10 s, 64° C. for 5 s and 72° C. for 18 s with a single fluorescence measurement. […] A mathematical model was used to determine the relative quantification of target genes compared to HMBS reference gene (Pfaffl 2001).
To that aim, confluent normal human keratinocytes (NHEK) were treated for 24 hrs with the indicated mix of cytokines (each cytokine at 1 ng/ml final concentration). Total RNA was extracted, reverse-transcribed and the expression of the selected genes was analyzed by real-time PCR as described.

[6] = tested on: RHE; test: KDM mRNA in reconstituted human epidermis (RT-PCR); format: cell-based; conditions: 24 h
Description: as §1, §3

[7] = tested on: NHEK; test: RT-QPCR of antimicrobial peptide and chemokine genes in NHEK; format: cell-based, human; conditions: 10 ng/ml, 24 h
Description: as §2
NHEK and skin total RNA were isolated and reverse-transcribed as previously described (Boniface et al, 2005). Quantitative real time PCR was carried using the LightCycler-FastStart DNA Master SYBR® Green I kit on LightCycler 480 (Roche Diagnostics, Meylan, France). The reaction components were 1×DNA Master Mix, and 0.5 μM of HPLC purified sense and anti-sense oligonucleotides purchased from Eurogentec (Eurogentec France, Angers, France), designed using Primer3 software. Samples were normalized to three independent control housekeeping genes (G3PDH, RPL13A or ACTB for human samples and G3PDH, HMBS or B2m for mouse samples) and reported according to the ΔΔCT method as RNA fold increase: 2^ΔΔCT=2^ΔCT sample−ΔCT eference. For comparison of normal skin and psoriatic skin the REST 2008 software was used (Pfaffl et al., 2002).

CC(C)(C)c1nc2c3ccc(F)cc3c3c(=O)[nH]ccc3c2[nH]1 [JAKs inhibitor, reference compound]
Effect on M5-induced RHE disruption and hyperplasia ([1]; JAKs inhibitor 10 μM with M5 (3 ng/ml)): protects the integrity of the RHE and blocked the epidermal hyperplasia

IL-1β: cytokine of the same family as IL-1α
Redundancy with the family member it replaces in M5 (BD2 and CXCL8 production) [2]: total redundancy | Number of genes (of 154) whose expression is modified with at least a three fold increase or decrease [3]: at least five genes

IL-6: cytokine of the same family as OSM
Redundancy with the family member it replaces in M5 (BD2 and CXCL8 production) [2]: weak redundancy | Number of genes (of 154) whose expression is modified with at least a three fold increase or decrease [3]: at least five genes

IL-17A: recombinant cytokine; IL-17 designates IL-17A, IL-17B or a mixture, preferably IL-17A
Number of KDM whose control mRNA expression is partially restored on removal of the cytokine from M5 [4]: 3 KDM | mRNA expression of CK1, DSG1, DSC1, FLG, CLSP, LOR and FABPS [4]: minor activities | Decrease of the activity of the 5 cytokines reference mix on omission of the cytokine, S100A7 [5]: 4.5 fold | Decrease of the activity of the 5 cytokines reference mix on omission of the cytokine, hBD2/4 [5]: 36 fold | BD2 production, single cytokines ([2]; 10 ng/ml): most potent inducers | Contribution to M5 activity on BD2 and CXCL8 production (successive removal) [2]: more critical to the activity of the M5 combination | IVL mRNA expression [6]: discretely inhibited | CK10, LOR and FLG expression (immunohistology) [1]: did not exhibit any activity | IVL expression (immunohistology) [1]: discreetly induced | S100A7 expression (immunohistology) [1]: very slightly | RHE histology [1]: does not modify RHE histology | Number of genes (of 154) whose expression is modified with at least a three fold increase or decrease [3]: at least five genes | Number of the 21 chemokine and antimicrobial peptide genes upregulated [7]: 16

TNFα
Rank as contributor to keratinocyte differentiation inhibition (removal from M5) [4]: most potent cytokines for keratinocyte differentiation inhibition | mRNA expression of CK1, DSG1, DSC1, FLG, CLSP, LOR and FABPS [4]: downregulate mRNA expression | Decrease of the activity of the 5 cytokines reference mix on omission of the cytokine, S100A7 [5]: 3 fold | Decrease of the activity of the 5 cytokines reference mix on omission of the cytokine, hBD2/4 [5]: 5.6 fold | Contribution to M5 activity on BD2 and CXCL8 production (successive removal) [2]: more critical to the activity of the M5 combination | CK10, LOR and FLG expression (immunohistology) [1]: did not exhibit any activity | IVL expression (immunohistology) [1]: discreetly induced | S100A7 expression (immunohistology) [1]: very slightly | RHE histology [1]: does not modify RHE histology | Number of genes (of 154) whose expression is modified with at least a three fold increase or decrease [3]: at least five genes | Number of the 21 chemokine and antimicrobial peptide genes upregulated [7]: 20

B1: INFγ: gamma Interferon (protein, UniProt P01579 24-161, looked up)
Interferon gamma: QDPYVKEAENLKKYFNAGHSDVADNGTLFLGILKNWKEESDRKIMQSQIVSFYFKLFKNFKDDQSIQKSVETIKEDMNVKFFNSNKKKRDDFEKLTNYSVTDLNVQRKAIHELIQVMAELSPAAKTGKRKRSQMLFRG
Effect of depleting the cytokine from the mix on activity of the complete cocktail [5]: did not significantly decrease the activity

B2: IL-24: cytokine of the same family as IL-22 (protein, UniProt Q13007 52-206, looked up)
Interleukin-24: QEFHFGPCQVKGVVPQKLWEAFWAVKDTMQAQDNITSARLLQQEVLQNVSDAESCYLVHTLLEFYLKTVFKNYHNRTVEVRTLKSFSTLANNFVLIVSQLQPSQENEMFSIRDSAHRRFLLFRRAFKQLDVEAALTKALGEVDILLTWMQKFYKL
Redundancy with the family member it replaces in M5 (BD2 and CXCL8 production) [2]: limited redundancy | Number of genes (of 154) whose expression is modified with at least a three fold increase or decrease [3]: at least five genes

B3: TNFβ: cytokine of the same family as TNFα (protein, UniProt P01374 35-205, looked up)
Lymphotoxin-alpha: LPGVGLTPSAAQTARQHPKMHLAHSTLKPAAHLIGDPSKQNSLLWRANTDRAFLQDGFSLSNNSLLVPTSGIYFVYSQVVFSGKAYSPKATSSPLYLAHEVQLFSSQYPFHVPLLSSQKMVYPGLQEPWLHSMYHGAAFQLTQGDQLSTHTDGIPHLVLSPSTVFFGAFAL
Redundancy with the family member it replaces in M5 (BD2 and CXCL8 production) [2]: strong redundancy

B4: IL-17F: cytokine of the same family as IL-17A (protein, UniProt Q96PD4 31-163, looked up)
Interleukin-17F: RKIPKVGHTFFQKPESCPPVPGGSMKLDIGIINENQRVSMSRNIESRSTSPWNYTVTWDPNRYPSEVVQAQCRNLGCINAQGKEDISMNSVPIQQETLVVRRKHQGCSVSFQLEKVLVTVGCTCVTPVIHHVQ
Redundancy with the family member it replaces in M5 (BD2 and CXCL8 production) [2]: limited redundancy
